Experimental data published in US8741955B2, “D-serine transporter inhibitors as pharmaceutical compositions for the treatment of central nervous system disorders” (Allergan, Inc., priority 2011, dated 2014).

Columns and labels:
[1] = test system: amphetamine-induced hyperlocomotion; settings: systemic administration; Smith et al, 2009; cited from earlier work
human ASCT2 = target: T1, human ASCT2 (Homo sapiens, UniProt Q15758); assay: transport into HEK cells expressing ASCT2; type: cell-based
T1 construct: expressed in transfected cells; host or cells: HEK (human embryonic kidney) cells
T1 sequence (Q15758 1-541): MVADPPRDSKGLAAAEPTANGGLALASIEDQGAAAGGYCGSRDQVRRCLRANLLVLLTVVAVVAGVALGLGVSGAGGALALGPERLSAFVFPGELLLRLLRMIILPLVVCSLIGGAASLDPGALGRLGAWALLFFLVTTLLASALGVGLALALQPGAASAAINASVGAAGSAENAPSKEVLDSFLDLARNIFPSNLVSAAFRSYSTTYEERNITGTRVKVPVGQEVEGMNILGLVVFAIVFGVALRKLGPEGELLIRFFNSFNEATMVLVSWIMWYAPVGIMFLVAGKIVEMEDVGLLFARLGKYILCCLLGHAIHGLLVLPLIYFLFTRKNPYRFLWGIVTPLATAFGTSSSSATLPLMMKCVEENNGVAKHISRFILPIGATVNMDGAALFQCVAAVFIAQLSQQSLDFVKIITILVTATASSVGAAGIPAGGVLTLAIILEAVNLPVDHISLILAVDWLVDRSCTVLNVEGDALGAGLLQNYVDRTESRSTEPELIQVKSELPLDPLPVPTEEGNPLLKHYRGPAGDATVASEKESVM
Experimental: (§1) Cell-based assays: the transport of [^3H]L- or D-serine was measured in primary cultures of rat hippocampal astrocytes or in human embryonic kidney (HEK) cells expressing ASCT transporter sub-types. For the astrocyte assays, cells were plated on either 24- or 96-well plates at a density of 50,000 cells per well. For the HEK assays, cells were plated on coated 96-well plates at a density of 80,000 cells/well. Assays were conducted in duplicate at room temperature in assay buffer consisting of: NaCl: 150 mM, KCl: 2 mM; MgCl2: 1 mM; CaCl2: 1 mM; HEPES: Tris buffer: 10 mM, pH7.4. To assess the sodium-dependence of transport, NaCl was replaced in the assay buffer by equimolar choline chloride. Following aspiration of growth medium and 2 washes with assay buffer, cells were incubated with [^3H]L- or D-serine at a final concentration of 1 μM for 5 min (astrocytes) or 1 min (HEK cells), after which the incubation medium was aspirated and the cells washed twice with ice-cold assay buffer. Cells containing radiolabel were solubilized in 100 μl of 1% Triton-X100 and an aliquot counted in a beta counter. IC50 values were determined over a range of at least 6 concentrations and derived from curve-fitting algorithms available in GraphPad Prism 4.

human ASCT1 = target: T2, human ASCT1 (Homo sapiens, UniProt P43007); assay: transport into HEK cells expressing ASCT1; type: cell-based
T2 construct: expressed in transfected cells; host or cells: HEK (human embryonic kidney) cells
T2 sequence (P43007 1-532): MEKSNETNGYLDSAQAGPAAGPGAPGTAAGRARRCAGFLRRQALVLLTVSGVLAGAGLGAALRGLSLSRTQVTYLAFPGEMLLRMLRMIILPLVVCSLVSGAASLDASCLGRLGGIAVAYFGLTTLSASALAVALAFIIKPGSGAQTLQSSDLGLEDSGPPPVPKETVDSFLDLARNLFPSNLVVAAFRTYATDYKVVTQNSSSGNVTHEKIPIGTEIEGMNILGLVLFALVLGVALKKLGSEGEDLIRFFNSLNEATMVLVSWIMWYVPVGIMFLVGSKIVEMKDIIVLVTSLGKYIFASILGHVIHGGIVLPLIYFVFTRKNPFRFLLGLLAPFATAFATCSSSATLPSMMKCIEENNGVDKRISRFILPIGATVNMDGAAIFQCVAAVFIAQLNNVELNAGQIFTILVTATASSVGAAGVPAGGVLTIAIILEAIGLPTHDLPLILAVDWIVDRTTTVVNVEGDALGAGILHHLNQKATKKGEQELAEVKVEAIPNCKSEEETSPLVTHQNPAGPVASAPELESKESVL
Experimental: as §1

[2] = test system: NMDA receptor-mediated excitatory postsynaptic currents (EPSCNMDA); assay: electrophysiological recording of NMDA receptor-mediated EPSCs in rat hippocampal slices
Experimental: […] thick hippocampal slices were prepared from […] rats using Leica VT1000S-microtome. Slices were perfused with ACSF containing: 121 mM NaCl, 2.5 mM KCl, 2.0 mM Mg2SO4, 2.0 CaCl2, 1 mM NaH2PO4, 26.2 NaHCO3, and 11 mM glucose, which was equilibrated with 5% CO2/95% O2. Experiments were performed in a recording chamber on the stage of an Olympus BX-61wi microscope with infrared DIC optics for visualizing whole-cell patch-clamp recordings. EPSPs were recorded from CA1 pyramidal neurons by stimulating the Schaffer collateral-commissural pathway using a bipolar tungsten electrode. The recording pipettes were filled with regular ICM containing: 120 mM Cs-gluconate, 5 mM NaCl, 10 mM KCl, 0.1 mM CaCl2, 1 mM EGTA, 2 mM MgCl2, 10 mM HEPES, 2 mM Na-ATP, 2 mM Na2-phosphocreatine, and 0.25 mM Na-GTP, pH 7.3 (290 mOsm).
To measure NMDA-mediated EPSCs, extracellular Mg2SO4 was lowered to 0.2 mM and 2 μM NBQX and 100 μM picrotoxin were added in the ACSF. 1 μM 7-CKY (7-chlorokynurenic acid) was added to improve the sensitivity of […] to D-serine.

| inhibition of [3H]L-serine transport in ASCT2-expressing HEK cells (human ASCT2) | inhibition of [3H]L-serine transport in ASCT1-expressing HEK cells (human ASCT1) | percentage increase in the amplitude of EPSCNMDA ([2]; 1000 μM, in presence of 1 μM 7-CKY, representative experiment) [%] | SMILES | effect on amphetamine-induced hyperlocomotion (literature) [1] | transport of [3H]D-serine into ASCT1-expressing HEK cells (substrate) (human ASCT1; with and without extracellular sodium) | duration of potentiation of EPSCNMDA ([2]; 1000 μM, representative experiment) | effect on NMDA receptor mediated EPSCs in CA1 region of the hippocampus ([2]; rat hippocampal slice) |
| --- | --- | --- | --- | --- | --- | --- | --- |
| completely inhibited | completely inhibited | – | N[C@H](CO)C(=O)O [D-serine] | reduce amphetamine-induced hyperlocomotion | transported into ASCT1-expressing HEK cells in a sodium-dependent manner | – | – |
| – | – | 22 | N[C@H](C(=O)O)c1ccc(O)cc1 [L-4-hydroxyphenylglycine] | – | – | lasted for one hour and then returned to baseline in control buffer | potentiated NMDA receptor mediated excitatory post-synaptic currents |
